Marks after values point to notes of the source that are not given here.
Tests used:
[1] = Steady-state plasma pharmacokinetics; assay type: in vivo, human; settings: for Cmax: GM Cmax
[2] = 10 HIV-infected individuals, 6 also on twice-daily darunavir/ritonavir; cited from earlier work
[3] = IC accumulation: ratio of IC drug to drug in plasma; settings: human, GM IC to Plasma Ratio
[4] = tested on: HIV; settings: 800 mg once daily versus approved 400 mg twice-daily dose; cited from earlier work
[5] = Steady-state intracellular; assay type: in vivo, human; settings: IC (PBMC); for GM AUC: AUC0–12; for Cmax: GM Cmax
[6] = group 1, period 2 (day 35): raltegravir 400 mg twice daily + darunavir/ritonavir 800/100 mg once daily
[7] = group 1, period 2 (day 35): raltegravir 400 mg twice daily + darunavir/ritonavir 800/100 mg once daily, listed as raltegravir
[8] = group 2, period 2 (day 35): raltegravir 800 mg once daily + darunavir/ritonavir 800/100 mg once daily

SMILES: Cc1nnc(C(=O)NC(C)(C)c2nc(C(=O)NCc3ccc(F)cc3)c(O)c(=O)n2C)o1 [Raltegravir, raltegravir]
- GM Ctrough [1, 6]: 20 ng/mL
- GM Ctrough [1, 7]: 20 (17–25) ng/mL
- GM Ctrough [1, 8]: 11 ^* ng/mL
- Cmax ([1]; human, group 1, period 2 (day 35): raltegravir 400 mg twice daily + darunavir/ritonavir 800/100 mg once daily): 0.438 µg/mL
- concentration at 12 h ([1]; human, GM Ctrough, group 1, period 1 (day 21): raltegravir 400 mg twice daily, without darunavir/ritonavir): 0.023 µg/mL
- concentration at 12 h ([1]; human, GM Ctrough, group 2, period 1 (day 21): raltegravir 400 mg twice daily, without darunavir/ritonavir): 0.028 µg/mL
- Cmax ([1]; human, oral, 400 mg, group 1, period 1 (day 21): raltegravir 400 mg twice daily, without darunavir/ritonavir): 0.533 µg/mL
- Cmax ([1]; human, oral, 400 mg, group 2, period 1 (day 21): raltegravir 400 mg twice daily, without darunavir/ritonavir): 0.361 µg/mL
- Cmax ([1]; human, oral, group 2, period 2 (day 35): raltegravir 800 mg once daily + darunavir/ritonavir 800/100 mg once daily): 0.556 µg/mL
- concentration at 12 h ([1]; human, oral, GM Ctrough, group 1, period 1 (day 21): raltegravir 400 mg twice daily, without darunavir/ritonavir): 0.023 µg/mL
- concentration at 12 h ([1]; human, oral, GM Ctrough, group 2, period 1 (day 21): raltegravir 400 mg twice daily, without darunavir/ritonavir): 0.028 µg/mL
- concentration at 24 h ([1]; human, oral, GM Ctrough, group 2, period 2 (day 35): raltegravir 800 mg once daily + darunavir/ritonavir 800/100 mg once daily): 0.011 µg/mL
- decrease of plasma AUC [2]: 33%
- Kp ([3]; PBMC (intracellular)/plasma, oral, 400 mg, AUC, group 1, period 1 (day 21): raltegravir 400 mg twice daily, without darunavir/ritonavir): 4.9
- Kp ([3]; PBMC (intracellular)/plasma, oral, 400 mg, AUC, group 2, period 1 (day 21): raltegravir 400 mg twice daily, without darunavir/ritonavir): 5.6
- Kp ([3]; PBMC (intracellular)/plasma, oral, 400 mg, Cmax, group 1, period 1 (day 21): raltegravir 400 mg twice daily, without darunavir/ritonavir): 4.6
- Kp ([3]; PBMC (intracellular)/plasma, oral, 400 mg, Cmax, group 2, period 1 (day 21): raltegravir 400 mg twice daily, without darunavir/ritonavir): 5.5
- Kp ([3]; PBMC (intracellular)/plasma, oral, 400 mg, Ctrough, group 1, period 1 (day 21): raltegravir 400 mg twice daily, without darunavir/ritonavir): 5.1
- Kp ([3]; PBMC (intracellular)/plasma, oral, 400 mg, Ctrough, group 2, period 1 (day 21): raltegravir 400 mg twice daily, without darunavir/ritonavir): 4.6
- Kp ([3]; intracellular (PBMC) / plasma, AUC (raltegravir), group 1, period 2 (day 35): raltegravir 400 mg twice daily + darunavir/ritonavir 800/100 mg once daily): 5.8
- Kp ([3]; intracellular (PBMC) / plasma, AUC (raltegravir), group 2, period 2 (day 35): raltegravir 800 mg once daily + darunavir/ritonavir 800/100 mg once daily): 6
- Kp ([3]; intracellular (PBMC) / plasma, oral, Cmax, group 1, period 2 (day 35): raltegravir 400 mg twice daily + darunavir/ritonavir 800/100 mg once daily): 5.6
- Kp ([3]; intracellular (PBMC) / plasma, oral, Cmax, group 2, period 2 (day 35): raltegravir 800 mg once daily + darunavir/ritonavir 800/100 mg once daily): 6.8
- Kp ([3]; intracellular (PBMC) / plasma, oral, Ctrough, group 1, period 2 (day 35): raltegravir 400 mg twice daily + darunavir/ritonavir 800/100 mg once daily): 4.5
- Kp at 24 h ([3]; intracellular (PBMC) / plasma, oral, Ctrough, group 2, period 2 (day 35): raltegravir 800 mg once daily + darunavir/ritonavir 800/100 mg once daily): 2.4
- virological response [4]: did not show the same virological response
- GM AUC ([5]; group 1, period 1 (day 21): raltegravir 400 mg twice daily, without darunavir/ritonavir): 9010 ng/h/mL
- GM AUC ([5]; group 1, period 1 (day 21): raltegravir 400 mg twice daily, without darunavir/ritonavir, listed as raltegravir): 9010 (7852–13,519) ng·h^−1·mL^−1
- GM Ctrough [5, 6]: 105 ng/mL
- GM Ctrough [5, 7]: 105 (51–295) ng/mL
- GM AUC ([5]; group 2, period 1 (day 21): raltegravir 400 mg twice daily, without darunavir/ritonavir): 8780 ng/h/mL
- GM AUC ([5]; group 2, period 1 (day 21): raltegravir 400 mg twice daily, without darunavir/ritonavir, listed as raltegravir): 8780 (7286–16,400) ng·h^−1·mL^−1
- GM Ctrough [5, 8]: 22 ng/mL
- Cmax ([5]; human, PBMC (intracellular), oral, 400 mg, group 2, period 1 (day 21): raltegravir 400 mg twice daily, without darunavir/ritonavir): 1.87 µg/mL
- Cmax ([5]; human, PBMC, 400 mg, group 1, period 1 (day 21): raltegravir 400 mg twice daily, without darunavir/ritonavir): 2.31 µg/mL
- concentration at 12 h ([5]; human, PBMC, GM Ctrough, group 1, period 1 (day 21): raltegravir 400 mg twice daily, without darunavir/ritonavir): 0.101 µg/mL
- concentration at 12 h ([5]; human, PBMC, GM Ctrough, group 2, period 1 (day 21): raltegravir 400 mg twice daily, without darunavir/ritonavir): 0.115 µg/mL
- Cmax ([5]; human, PBMC, oral, 400 mg, group 1, period 1 (day 21): raltegravir 400 mg twice daily, without darunavir/ritonavir): 2.31 µg/mL
- Cmax ([5]; human, PBMC, oral, group 1, period 2 (day 35): raltegravir 400 mg twice daily + darunavir/ritonavir 800/100 mg once daily): 2.17 µg/mL
- Cmax ([5]; human, PBMC, oral, group 2, period 2 (day 35): raltegravir 800 mg once daily + darunavir/ritonavir 800/100 mg once daily): 2.82 µg/mL
- concentration at 12 h ([5]; human, PBMC, oral, GM Ctrough, group 1, period 1 (day 21): raltegravir 400 mg twice daily, without darunavir/ritonavir): 0.101 µg/mL
- concentration at 12 h ([5]; human, PBMC, oral, GM Ctrough, group 2, period 1 (day 21): raltegravir 400 mg twice daily, without darunavir/ritonavir): 0.115 µg/mL
- concentration at 24 h ([5]; human, PBMC, oral, GM Ctrough, group 2, period 2 (day 35): raltegravir 800 mg once daily + darunavir/ritonavir 800/100 mg once daily): 0.022 µg/mL
